Data published in ChEMBL document CHEMBL5365553, “Design of Synthetic Surrogates for the Macrolactone Linker Motif in Coibamide A” (ACS Med Chem Lett, 2023).
Activity calls are given as the source filed them. The rule behind the calls is not given here. Positions of bridges follow the written chain, without caps; N, C: chain ends. Non-standard residues stand in square brackets, D forms with d. Residues, ends and D or L forms follow the SMILES beside them. *: point of attachment. NMe2Val = CC(C)[C@@H](C(=O)*)N(C)C; NMeLys(Me) = CNCCCC[C@H](NC)C(=O)O; NMeI = CC[C@H](C)[C@H](NC)C(=O)O; NMeT = CN[C@H](C(=O)O)[C@@H](C)O; NMeL = CN[C@@H](CC(C)C)C(=O)O; NMeDap = CN[C@@H](CN)C(=O)O; dHiv = CC(C)[C@@H](O)C(=O)O; NMeA = CN[C@@H](C)C(=O)O; dNMeA = CN[C@H](C)C(=O)O

Columns and labels:
Type in all cases: functional, cell-based
U-87 MG [1] = assay: Antiproliferative activity against human U-87MG cells expressing GLuc assessed as cell viability at 0.0003 to 300 nM incubated for 18 hrs by CellTiter-Glo Luminescent Cell Viability Assay; settings: U-87MG ATCC, dose 0.0003-300 nM
U-87 MG [2] = assay: Antiproliferative activity against human U87 cells expressing GLuc assessed as inhibition of GLuc secretion incubated for 18 hrs by CellTiter-Glo Luminescent Cell Viability Assay; settings: U-87MG ATCC, dose 0.1-10 µM
U-87 MG [3] = assay: Antiproliferative activity against human U-87 MG cells expressing GLuc assessed as as inhibition of GLuc secretion incubated for 18 hrs by CellTiter-Glo Luminescent Cell Viability Assay; settings: U-87MG ATCC
SF-268 [4] = assay: Inhibition of endogenously-secreted VEGF-A in human SF-268 cells incubated for 24 hrs by ELISA assay; settings: dose 30-100 nM
SF-268 [5] = assay: Downregulation of VEGF-A protein secretion level in human SF-268 cells for 24 hrs by ELISA analysis; settings: dose 30-100 nM
SF-268 [6] = assay: Downregulation of VEGF-A protein secretion level in human SF-268 cells at 30 to 300 nM for 24 hrs by ELISA analysis; settings: dose 30-300 nM

SMILES	inhibition (U-87 MG [1])	Activity (U-87 MG [2])	inhibition (U-87 MG [3])	inhibition (SF-268 [4])	Activity (SF-268 [5])	Activity (SF-268 [6])
CC[C@H](C)[C@H]1C(=O)N[C@@H](C)C(=O)N(C)[C@@H](CC(C)C)C(=O)N[C@@H](Cc2ccc(-c3ccccc3)cc2)C(=O)N(C)[C@H](C)C(=O)N[C@H](C)[C@H](N(C)C(=O)[C@H](CC(C)C)N(C)C(=O)[C@H](COC)N(C)C(=O)[C@H](OC(=O)[C@H](C(C)C)N(C)C)C(C)C)C(=O)N(C)[C@@H](COC)C(=O)N1C	inactive	Dose-Dependent Effect	Dose-Dependent Effect			
CC[C@H](C)[C@H]1C(=O)N[C@@H](C)C(=O)N(C)[C@@H](CC(C)C)C(=O)N[C@@H](Cc2ccc(OC)cc2)C(=O)N(C)[C@H](C)C(=O)N[C@H](C)[C@H](N(C)C(=O)[C@H](CC(C)C)N(C)C(=O)[C@H](COC)N(C)C(=O)[C@H](OC(=O)[C@H](C(C)C)N(C)C)C(C)C)C(=O)N(C)[C@@H](COC)C(=O)N1C	inactive	Dose-Dependent Effect	Dose-Dependent Effect	Dose-Dependent Effect	Dose-Dependent Effect	
CC[C@H](C)[C@H]1C(=O)N[C@@H](C)C(=O)N(C)[C@@H](CC(C)C)C(=O)N[C@@H](Cc2ccc(OC)cc2)C(=O)N(C)[C@H](C)C(=O)O[C@H](C)[C@H](N(C)C(=O)[C@H](CC(C)C)N(C)C(=O)[C@H](C)N(C)C(=O)[C@H](OC(=O)[C@H](C(C)C)N(C)C)C(C)C)C(=O)N(C)[C@@H](C)C(=O)N1C (NMe2Val-[dHiv][NMeA][NMeL][NMeT][NMeA][NMeI]A[NMeL]Y(Me)[dNMeA]; ester 4-C)	inactive	Dose-Dependent Effect	Dose-Dependent Effect			
CC[C@H](C)[C@H]1C(=O)N[C@@H](C)C(=O)N(C)[C@@H](CC(C)C)C(=O)N[C@@H](Cc2ccc(OC)cc2)C(=O)N(C)[C@H](C)C(=O)NC[C@H](N(C)C(=O)[C@H](CC(C)C)N(C)C(=O)[C@H](C)N(C)C(=O)[C@H](OC(=O)[C@H](C(C)C)N(C)C)C(C)C)C(=O)N(C)[C@@H](C)C(=O)N1C (NMe2Val-[dHiv][NMeA][NMeL][NMeDap][NMeA][NMeI]A[NMeL]Y(Me)[dNMeA]; lactam 4-C)	inactive	Dose-Dependent Effect	Dose-Dependent Effect			
CC[C@H](C)[C@H]1C(=O)N[C@@H](C)C(=O)N(C)[C@@H](CC(C)C)C(=O)N[C@@H](Cc2ccc(OC)cc2)C(=O)N(C)[C@H](C)C(=O)N[C@H](C)[C@H](N(C)C(=O)[C@H](CC(C)C)N(C)C(=O)[C@H](C)N(C)C(=O)[C@H](OC(=O)[C@H](C(C)C)N(C)C)C(C)C)C(=O)N(C)[C@@H](C)C(=O)N1C	inactive	Dose-Dependent Effect	Dose-Dependent Effect			
CC[C@H](C)[C@H]1C(=O)N[C@@H](C)C(=O)N(C)[C@@H](CC(C)C)C(=O)N[C@@H](Cc2ccc(OC)cc2)C(=O)N(C)[C@H](C)C(=O)N(C)C[C@H](N(C)C(=O)[C@H](CC(C)C)N(C)C(=O)[C@H](C)N(C)C(=O)[C@H](OC(=O)[C@H](C(C)C)N(C)C)C(C)C)C(=O)N(C)[C@@H](C)C(=O)N1C	inactive		Dose-Dependent Effect			
CC[C@H](C)[C@H]1C(=O)N[C@@H](C)C(=O)N(C)[C@@H](CC(C)C)C(=O)N[C@@H](Cc2ccc(OC)cc2)C(=O)N(C)[C@H](C)CC[C@H](C)[C@H](N(C)C(=O)[C@H](CC(C)C)N(C)C(=O)[C@H](C)N(C)C(=O)[C@H](OC(=O)[C@H](C(C)C)N(C)C)C(C)C)C(=O)N(C)[C@@H](C)C(=O)N1C	inactive	Dose-Dependent Effect	Dose-Dependent Effect	Dose-Dependent Effect		Dose-Dependent Effect
CC[C@H](C)[C@H]1C(=O)N[C@@H](C)C(=O)N(C)[C@@H](CC(C)C)C(=O)N[C@@H](Cc2ccc(OC)cc2)C(=O)N(C)[C@H](C)/C=C/[C@H](C)[C@H](N(C)C(=O)[C@H](CC(C)C)N(C)C(=O)[C@H](C)N(C)C(=O)[C@H](OC(=O)[C@H](C(C)C)N(C)C)C(C)C)C(=O)N(C)[C@@H](C)C(=O)N1C	inactive	Dose-Dependent Effect	Dose-Dependent Effect			
CC[C@H](C)[C@H]1C(=O)N[C@@H](C)C(=O)N(C)[C@@H](CC(C)C)C(=O)N[C@@H](Cc2ccc(OC)cc2)C(=O)N(C)CCCC[C@H](N(C)C(=O)[C@H](CC(C)C)N(C)C(=O)[C@H](C)N(C)C(=O)[C@H](OC(=O)[C@H](C(C)C)N(C)C)C(C)C)C(=O)N(C)[C@@H](C)C(=O)N1C (NMe2Val-[dHiv][NMeA][NMeL][NMeLys(Me)][NMeA][NMeI]A[NMeL]Y(Me); lactam 4-C)	inactive	Dose-Dependent Effect	Dose-Dependent Effect	Dose-Dependent Effect		Dose-Dependent Effect
